We go through one compound from PMC9855884, “Glycosylated Lipopeptides—Synthesis and Evaluation of Antimicrobial Activity and Cytotoxicity” (Biomolecules, 2023).

In brackets after ≈: the same amount, converted by molar mass. Where a SMILES comes first, the peptide text is derived from it. The star is where a group is joined. βGlcNAc = CC(=O)N[C@@H]1[C@@H](O)[C@H](O)[C@@H](CO)O[C@H]1*; Stearoyl = CCCCCCCCCCCCCCCCCC(=O)*

For one data set, the system named is E. faecium ATCC 700221. It is filed as cell-based, Enterococcus faecium. Particulars: ATCC 700221, 18 h. The procedure: (§1) The Acinetobacter baumannii ATCC BAA-1605, Enterococcus faecium ATCC 700221, Klebsiella aerogenes ATCC 13048, Klebsiella pneumoniae ATCC 700603, Pseudomonas aeruginosa ATCC 9027, Staphylococcus aureus ATCC 33591, Candida glabrata ATCC 15126, strains were acquired from the American Type Culture Collection (ATCC). All the strains were stored at −80 °C in Roti-Store cryo vials and were transferred into fresh Mueller–Hinton broth (MHB, Becton Dickinson, Warsaw, Poland) for bacteria or RPMI-1640 (Sigma-Aldrich, Steinheim, Germany) for fungi before the tests and incubated for 24 h at 37 °C. Then, the cultures were seeded on the Mueller–Hinton agar (BioMaxima, Lublin, Poland) or Sabouraud dextrose agar (SDA, BioMaxima, Lublin, Poland) plates, respectively, and incubated as just mentioned. These agar cultures were used for further microbiological assays. Cell densities for all assays were adjusted spectrophotometrically (Multiskan GO Microplate Spectrophotometer, Thermo Fisher Scientific, Vantaa, Finland) at 600 and 530 nm for bacteria and fungi, respectively.
(§2) The MICs were determined using a broth microdilution method according to the Clinical and Laboratory Standard Institute guidelines. For this purpose, initial inoculums of bacteria (5 × 10^5 CFU/mL) in MHB and yeasts (2 × 10^3 CFU/mL) in RPMI-1640 with 2% D-glucose were exposed to the ranging concentration of lipopeptides (1–512 μg/mL) and incubated at 37 °C for 18 h and 24 h, respectively. The experiments were conducted on 96-well microtiter polystyrene plates (Kartell, Italy). The growth was assessed visually after incubation and the MIC was assumed as the lowest peptide concentration at which a noticeable growth of microorganisms was inhibited. All experiments were conducted in triplicate.

The next data set deals with K. aerogenes ATCC 13048. It is filed as cell-based, Klebsiella aerogenes. The settings on record: ATCC 13048, 18 h. The procedure: as §1, §2
Data set [1] relates to human red blood cells (RBCs). Put plainly: Hemolysis assay. It is filed as cell-based. Particulars: human RBCs 4% (v/v) in PBS, 60 min, 37 °C, absorbance 540 nm, 1–512 µg/mL; triplicate. As for the experimental part: The hemolysis assay was conducted using a procedure described previously. For this purpose, fresh human red blood cells (RBCs) with EDTA anticoagulant were washed three times with phosphate-buffer saline (PBS) using centrifugation at 800× g for 10 min and resuspended in PBS. Then, the stock solution of RBCs was added to serial dilution of peptides on 96-well polystyrene plates to reach a final volume of 100 µL with 4% concentration of erythrocytes (v/v) over the concentration range of 1–512 µg/mL of the tested compounds. The control wells for the 0% and 100% hemolysis consisted of RBCs suspended in PBS and 1% of Triton X–100, respectively. Subsequently, the plates were incubated for 60 min at 37 °C and then centrifuged at 800× g for 10 min at 4 °C (Sorvall ST 16R Centrifuge, Thermo Scientific, Osterode am Harz, Germany). After centrifugation, the supernatant was carefully […] to new microtiter plates and the release of hemoglobin was monitored through absorbance measurements at 540 nm (Multiskan™ GO Microplate Spectrophotometer, Thermo Scientific). All experiments were conducted in triplicate.
The lipopeptides were tested against human erythrocytes in order to evaluate their hemolytic activity. Moreover, selectivity indexes (SI) were calculated by dividing the HC50 by MIC. […] In some cases, glycosylation led to suppressed toxicity, e.g., a comparison of C14 peptides analogs: 1–3 and 10–12. On the other hand, an increase in toxicity of C18 analogs (7–9 vs. 16–18) was found for glycosylated USCLs. For this reason, SI was calculated to provide a correlation between antimicrobial activity and toxicity. […] Among gUSCLs: 10 and 11 with C14 fatty acid and 16–18 should be highlighted owing to their high selectivity against E. fecium and C. glabrata.

The next data set has as its system S. aureus ATCC 33591. The format is cell-based, Staphylococcus aureus. The settings on record: ATCC 33591, 18 h. As for the experimental part:
as §1, §2

Data set [2] has as its system A. baumannii ATCC BAA 1605. It is filed as cell-based, Acinetobacter baumannii. The settings on record: ATCC BAA 1605, 18 h. The procedure: as §1, §2
In another data set the test system is P. aeruginosa ATCC 9027. The format is cell-based, Pseudomonas aeruginosa. The settings on record: ATCC 9027, 18 h. The procedure:
as §1, §2

A further data set has as its system C. glabrata ATCC 15126. The format is cell-based, Candida glabrata. Particulars: ATCC 15126, 24 h.
Data set [3] can be described thus: Determination of peptide hydrophobicity with RP-HPLC (adjusted retention time). It is filed as physicochemical. The settings on record: RP-HPLC as measure of hydrophobicity; Waters X-Bridge Shield RP-18 3.0 × 100 mm, 3.5 μm; linear 20–80% acetonitrile in water over 30 min, 0.1% TFA; 0.5 mL/min; 25.0 °C; peptide 1 g/L in water (0.1% TFA); UV 214 nm; triplicate.

As for `CCCCCCCCCCCCCCCCCC(=O)N[C@@H](CCCNC(=N)N)C(=O)N[C@@H](CCCNC(=N)N)C(=O)N[C@@H](CO[C@@H]1O[C@H](CO)[C@@H](O)[C@H](O)[C@H]1NC(C)=O)C(N)=O` [Peptide 18, C18-RRS(GlcNAc)-NH2] (Stearoyl-Arg-Arg-Ser(βGlcNAc)-NH2), the minimum inhibitory concentration (MIC) is given as 8 µg/mL (≈ 9.03 µM) against E. faecium ATCC 700221; 32 µg/mL (≈ 36.1 µM) against K. aerogenes ATCC 13048; 16 µg/mL (≈ 18.1 µM) against S. aureus ATCC 33591; 32 µg/mL (≈ 36.1 µM) in data set [2]; 32 µg/mL (≈ 36.1 µM) with P. aeruginosa ATCC 9027; 4 µg/mL (≈ 4.51 µM) with C. glabrata ATCC 15126. In addition, the “HC50 (hemolytic activity)” value in data set [1] was 48.04 ± 2.45 µg/mL. In data set [3], the “Adjusted Retention Time” value worked out at 22.67 min.

As usually defined, the MIC is the lowest concentration that inhibits growth of the organism.
